The values that follow are results of earlier work, collected in patent US20230218508A1, “BIODEGRADABLE COMPOSITIONS AND IMPLANTS” (RE-VANA THERAPEUTICS LTD, priority 2020, published 2023).

For this series the following is noted: target daily release level; for ranibizumab and BEZ about five times the literature IC50.

Turning to `CC(C)OC(=O)CCC/C=C\C[C@@H]1[C@@H](CC[C@@H](O)CCc2ccccc2)[C@H](O)C[C@@H]1O` [LP, Latanoprost], the minimum therapeutic level was 0.105 µg/day.

Regarding Bevacizumab [BEZ], the minimum therapeutic level was 0.5 µg/day.

B1: Ranibizumab (antibody, chains of the INN, looked up, V domains shown)
VH: EVQLVESGGGLVQPGGSLRLSCAASGYDFTHYGMNWVRQAPGKGLEWVGWINTYTGEPTYAADFKRRFTFSLDTSKSTAYLQMNSLRAEDTAVYYCAKYPYYYGTSHWYFDVWGQGTLVTVSS
VL: DIQLTQSPSSLSASVGDRVTITCSASQDISNYLNWYQQKPGKAPKVLIYFTSSLHSGVPSRFSGSGSGTDFTLTISSLQPEDFATYYCQQYSTVPWTFGQGTKVEIK
modifications: Fab
notes: Marketed antibody therapeutic (LUCENTIS®) with molecular weight close to Ovalbumin
Regarding B1, the minimum therapeutic level was 0.5 µg/day.
